Patent US8936939B2, “Hormone responsive tissue culture system and uses thereof” (Whitehead Institute for Biomedical Research, priority 2004, dated 2015)

Assays:
BPLER xenografts = assay: Hormone response of BPLER xenograft tumors in mice; assay type: in vivo; conditions: estrogen treated animals vs control animals
Source text: In one respect, the histology of tumors arising from BPLER is very similar, if not identical to human ductal breast carcinoma. There is prominent luminal marker CK18 expression in BPLER cells and tumors. There is also prominent expression of E-cadherin, a marker indicating polarization of cells. Morphology wise, BPLER xenografts form glandular structures similar to those seen in human tumors. BPLER xenografts into mammary fat pads are invasive into adjacent skeletal muscle, and cause a desmoplastic reaction. BPLER xenografts also express progesterone receptors based on immunohistological staining of xenograft tumor samples. In addition, BPLER tumor sizes respond to estrogen treatment, in that xenograft tumors weighed about 70-100% more in estrogen treated animals than in control animals. BPLER tumors spread within the breast tissue of mice, and the multifocal growth is consistent with lymphovascular invasion and spread of tumors.
Subcutaneous tumorigenicity was tested in 6-8 week old immunocompromised athymic nude mice by injecting about 1×10^6 cells resuspended in 100 μl of 50% matrigel (EHSS). Nude mice were irradiated with 400 rad 12 hr prior to injections. Orthotopic tumorigenicity was tested by injecting about 1×10^6 cells into the mammary fat pad of Nod/Skid mice. All mice were sacrificed on day 70. […]

BPEC cells = assay: In vitro growth inhibition of BPEC cells by estrogen antagonist; assay type: cell-based, human; conditions: data not shown
Source text: (§1) Expression of CK18 and BER-Ep4 both confirm the adenocarcinoma features and exclude a squamous tumor. E-cadherin excludes a mesenchymal tumor. BPLER xenografts express progesterone receptor, which is consistent with the notion that BPLER xenografts are hormone-responsive. This was confirmed by experiments in which estrogen-progesterone treatment of mice increased subject tumor size approximately two-fold compared to untreated mice. […] Similar tumor xenografts from cells cultured in the MEGM media was negative for progesterone receptor expression and the in vitro growth inhibition of the cells with ICI 182,780 was less than 20% (data not shown).

[1] = tested on: cells cultured in the MEGM media; assay: In vitro growth inhibition of cells cultured in the MEGM media by estrogen antagonist; assay type: cell-based, human; conditions: data not shown
Source text: as §1

BPLE cells = assay: In vitro growth inhibition of BPLE cells by estrogen antagonist; assay type: cell-based, human; conditions: data not shown
Source text: as §1

BPE cells = assay: In vitro growth inhibition of BPE cells by estrogen antagonist; assay type: cell-based, human; conditions: data not shown
Source text: as §1

estrogen
xenograft tumor weight increase in treated versus control animals (BPLER xenografts): 70-100%

C[C@]12CC[C@@H]3c4ccc(O)cc4C[C@@H](CCCCCCCCC[S+]([O-])CCCC(F)(F)C(F)(F)F)[C@H]3[C@@H]1CC[C@@H]2O (some centres unmarked) [ICI 182,780]
growth inhibition (BPEC cells): > 80%
in vitro growth inhibition [1]: less than 20%
growth inhibition (BPLE cells): > 80%
growth inhibition (BPE cells): > 80%
